The numbers were not newly measured in patent US11077150B2, “Methods and compositions for treatment of eye conditions” (priority 2018, dated 2021), which cites them from elsewhere.

The conditions of series [1]: 75 symptomatic patients; nine-month trial; eye drops.
For series [2] the following is noted: oral doses of up to 600 mg; elderly subjects.
The conditions of series [3]: topically applied in light mineral oil; volunteers.
A further series deals with CB2 receptors (Homo sapiens, UniProt P34972).
The conditions of series [4]: rat model of DR.

Sequence of CB2 receptors (P34972 whole entry): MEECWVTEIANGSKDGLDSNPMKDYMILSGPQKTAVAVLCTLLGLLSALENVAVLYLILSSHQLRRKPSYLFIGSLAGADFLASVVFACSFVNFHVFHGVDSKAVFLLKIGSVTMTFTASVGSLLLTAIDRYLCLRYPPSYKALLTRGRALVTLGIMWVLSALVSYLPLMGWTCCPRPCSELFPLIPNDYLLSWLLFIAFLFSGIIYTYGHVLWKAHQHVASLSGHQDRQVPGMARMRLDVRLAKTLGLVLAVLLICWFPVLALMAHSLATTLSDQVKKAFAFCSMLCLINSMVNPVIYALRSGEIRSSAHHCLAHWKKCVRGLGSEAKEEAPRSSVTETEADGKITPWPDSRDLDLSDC

In the case of `CC(=O)NCCC(=O)N[C@@H](Cc1cnc[nH]1)C(=O)O` [N-acetyl carnosine], in series [1], the glare sensitivity result is “significant improvement” and the visual acuity entry is listed as “improvement”.
With `O=C(O)CCCCC1CCSS1` (stereo not drawn) [lipoic acid, α-lipoic acid], the tolerability entry in series [2] is recorded as “well tolerated”.
For `CCCCCc1cc(O)c2c(c1)OC(C)(C)[C@@H]1CCC(C)=C[C@@H]21` [THC, Δ^9-tetrahydrocannabinol], in series [3], the adverse effects result is reported as “burning sensation, lid swelling” and the “effect on interocular pressure” value is recorded as “did not improve”.
As to `C=C(C)[C@@H]1CCC(C)=C[C@H]1c1c(O)cc(CCCCC)cc1O` [Cannabidiol, cannabidiol], the water solubility entry is “very low”. At CB2 receptors, the “affinity for CB2 receptors” value is “low affinity”. For the same compound, in series [4], the “oxidative stress and neurotoxicity” value is “significantly reduced”; the retinal cell death entry is “prevented”.
